Assay results as given in patent publication US20230278984A1 (Global Blood Therapeutics, Inc., priority 2020, published 2023).

Biological target: T1, Human pyruvate kinase R (PKR) (Homo sapiens, UniProt P30613)
T1 construct: Human pyruvate kinase R (PKR), residues 14-574; 6x-His (N, cleaved yes); 8x-Arg (N, cleaved yes); SUMO (N, cleaved yes); host or cells: E. coli
Assay: Biochemical assay for activation of pyruvate kinase R (Kinase-Glo luminescence measurement of ATP generation)
Conditions: for AC50: PKR biochemical assay, 0.1 nM PKR, 0.3 mM ADP, 2 mM FBP, 0.1 mM PEP; for Emax: maximal activation level relative to the activation level achieved by the literature compound AG-348 @ 10 μM
How it was run: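 Recombinant human PKR (residues 14-574), E. coli-expressed with His-Arg-SUMO tag removed, purified by Ni-NTA, anion exchange and size exclusion. Activation measured as ATP generation via Kinase-Glo luminescence.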

T1 sequence (P30613 14-574): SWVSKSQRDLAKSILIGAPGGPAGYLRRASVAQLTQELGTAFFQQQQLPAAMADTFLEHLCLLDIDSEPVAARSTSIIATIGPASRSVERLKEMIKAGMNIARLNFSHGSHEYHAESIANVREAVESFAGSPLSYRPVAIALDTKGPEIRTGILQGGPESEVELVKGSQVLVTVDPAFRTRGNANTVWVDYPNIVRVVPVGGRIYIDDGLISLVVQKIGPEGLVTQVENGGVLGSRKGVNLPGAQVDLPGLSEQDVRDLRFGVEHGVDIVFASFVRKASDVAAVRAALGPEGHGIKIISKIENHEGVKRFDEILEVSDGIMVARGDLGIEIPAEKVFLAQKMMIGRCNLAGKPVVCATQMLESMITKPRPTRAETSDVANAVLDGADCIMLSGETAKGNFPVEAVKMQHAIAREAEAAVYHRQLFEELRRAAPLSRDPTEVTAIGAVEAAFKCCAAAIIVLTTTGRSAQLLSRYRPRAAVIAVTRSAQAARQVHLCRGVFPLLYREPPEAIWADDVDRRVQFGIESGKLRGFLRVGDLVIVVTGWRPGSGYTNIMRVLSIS

Row | AC50 [nM] | Emax [%] | SMILES
1 | 34 | 100 | Cc1nc(CNC(=O)NCc2nc(C)nn2-c2ccc(Cl)c(CO)c2)n(-c2ccc(Cl)c(F)c2)n1 [Compound 96, 1-({1-[4-chloro-3-(hydroxymethyl)phenyl]-3-methyl-1H-1,2,4-triazol-5-yl}methyl)-3-{[1-(4-chloro-3-fluorophenyl)-3-methyl-1H-1,2,4-triazol-5-yl]methyl}urea]
2 | 510 | 92 | COCCc1nc(CNC(=O)NCc2ncnn2-c2ccc3cccnc3c2)n(-c2ccc(Cl)c(F)c2)n1 [Compound 97, 1-{[1-(4-chloro-3-fluorophenyl)-3-(2-methoxyethyl)-1H-1,2,4-triazol-5-yl]methyl}-3-{[1-(quinolin-7-yl)-1H-1,2,4-triazol-5-yl]methyl}urea]
3 | 71 | 60 | O=C(NCc1ncnn1-c1ccc2cccnc2c1)NCc1n[nH]c(=O)n1-c1ccc(Cl)c(F)c1 [Compound 98, 3-{[4-(4-chloro-3-fluorophenyl)-5-oxo-4,5-dihydro-1H-1,2,4-triazol-3-yl]methyl}-1-{[1-(quinolin-7-yl)-1H-1,2,4-triazol-5-yl]methyl}urea]
4 | 69 | 69 | CNCc1cc(-n2nc(C)nc2CNC(=O)NCc2nc(C)nn2-c2ccc(Cl)c(F)c2)ccc1Cl [Compound 99, 1-[(1-{4-chloro-3-[(methylamino)methyl]phenyl}-3-methyl-1H-1,2,4-triazol-5-yl)methyl]-3-{[1-(4-chloro-3-fluorophenyl)-3-methyl-1H-1,2,4-triazol-5-yl]methyl}urea]
5 | 510 | 106 | COCCc1nc(CNC(=O)NCc2nc(C)nn2-c2ccc3cccnc3c2)n(-c2ccc(Cl)c(F)c2)n1 [Compound 100]
6 | 93 | 77 | Cc1nc(CNC(=O)NCc2ncnn2-c2cc(F)c3nccnc3c2)n(-c2ccc(Cl)c(F)c2)n1 [Compound 101, 1-{[1-(4-chloro-3-fluorophenyl)-3-methyl-1H-1,2,4-triazol-5-yl]methyl}-3-{[1-(8-fluoroquinoxalin-6-yl)-1H-1,2,4-triazol-5-yl]methyl}urea]
7 | 35 | 71 | Cc1nc(CNC(=O)NCc2ncnn2-c2cc(F)c3ncccc3c2)n(-c2ccc(Cl)c(F)c2)n1 [Compound 102]
8 | 110 | 73 | Cc1nc(CNC(=O)NCc2ncnn2-c2cc(C)c3nccnc3c2)n(-c2ccc(Cl)c(F)c2)n1 [Compound 103, 1-{[1-(4-chloro-3-fluorophenyl)-3-methyl-1H-1,2,4-triazol-5-yl]methyl}-3-{[1-(8-methylquinoxalin-6-yl)-1H-1,2,4-triazol-5-yl]methyl}urea]
9 | 36 | 80 | O=C(NCc1ncnn1-c1ccc2cccnc2c1)NCc1nc(CF)nn1-c1ccc(Cl)c(F)c1 [Compound 104, 1-{[1-(4-chloro-3-fluorophenyl)-3-(fluoromethyl)-1H-1,2,4-triazol-5-yl]methyl}-3-{[1-(quinolin-7-yl)-1H-1,2,4-triazol-5-yl]methyl}urea]
10 | 880 | 59 | Cc1nc(CNC(=O)NCc2ncnn2-c2cc(C)c3cncnc3c2)n(-c2ccc(Cl)c(F)c2)n1 [Compound 105, 1-{[1-(4-chloro-3-fluorophenyl)-3-methyl-1H-1,2,4-triazol-5-yl]methyl}-3-{[1-(5-methylquinazolin-7-yl)-1H-1,2,4-triazol-5-yl]methyl}urea]
11 | 71 | 125 | Cc1nc(CNC(=O)NCC2=NC3(CC3)C(=O)N2Cc2ccc(F)cc2)n(-c2ccc(Cl)c(F)c2)n1 [Compound 106, 1-{[1-(4-chloro-3-fluorophenyl)-3-methyl-1H-1,2,4-triazol-5-yl]methyl}-3-({6-[(4-fluorophenyl)methyl]-7-oxo-4,6-diazaspiro[2.4]hept-4-en-5-yl}methyl)urea]

Second part, the compound before the results:

Row | SMILES | AC50 [nM] | Emax [%]
12 | O=C(NCc1ncnn1-c1ccc2cccnc2c1)NCc1nnnn1-c1ccc(Cl)c(F)c1 [Compound 80, 1-{[1-(4-chloro-3-fluorophenyl)-1H-1,2,3,4-tetrazol-5-yl]methyl}-3-{[1-(quinolin-7-yl)-1H-1,2,4-triazol-5-yl]methyl}urea] | 200 | 106
13 | O=C(NCc1ncnn1-c1ccc2cccnc2c1)NCc1ncnn1-c1ccc2cccnc2c1 [Compound 81, 1,3-bis({[1-(quinolin-7-yl)-1H-1,2,4-triazol-5-yl]methyl})urea] | 280 | 64
14 | Cc1nc(CNC(=O)NCc2ncnn2-c2ccc3cnccc3c2)n(-c2ccc(Cl)c(F)c2)n1 [Compound 82, 1-{[1-(4-chloro-3-fluorophenyl)-3-methyl-1H-1,2,4-triazol-5-yl]methyl}-3-{[1-(isoquinolin-6-yl)-1H-1,2,4-triazol-5-yl]methyl}urea] | 270 | 85
15 | O=C(NCc1ncnn1-c1ccc2cccnc2c1)NCc1nc(C2CC2)nn1-c1ccc(Cl)c(F)c1 [Compound 83, 1-{[1-(4-chloro-3-fluorophenyl)-3-cyclopropyl-1H-1,2,4-triazol-5-yl]methyl}-3-{[1-(quinolin-7-yl)-1H-1,2,4-triazol-5-yl]methyl}urea] | 72 | 83
16 | Cc1nc(CNC(=O)NCc2nc(C)nn2-c2ccc3cccnc3c2)n(-c2ccc3cccnc3c2)n1 [Compound 84, 1,3-bis({[3-methyl-1-(quinolin-7-yl)-1H-1,2,4-triazol-5-yl]methyl})urea] | 520 | 94
17 | Cc1nc(CNC(=O)NCc2ncnn2-c2ccc(Cl)c(F)c2)n(-c2ccc3cccnc3c2)n1 [Compound 85, 1-{[1-(4-chloro-3-fluorophenyl)-1H-1,2,4-triazol-5-yl]methyl}-3-{[3-methyl-1-(quinolin-7-yl)-1H-1,2,4-triazol-5-yl]methyl}urea] | 36 | 67
18 | Cc1nc(CNC(=O)NCc2nnnn2-c2ccc(Cl)c(F)c2)n(-c2ccc3cccnc3c2)n1 [Compound 86, 1-{[1-(4-chloro-3-fluorophenyl)-1H-1,2,3,4-tetrazol-5-yl]methyl}-3-{[3-methyl-1-(quinolin-7-yl)-1H-1,2,4-triazol-5-yl]methyl}urea] | 66 | 90
19 | Cc1nc(CNC(=O)NCc2nc(C)nn2-c2ccc3cccnc3c2)n(-c2ccc(Cl)c(F)c2)n1 [Compound 87, 1-{[1-(4-chloro-3-fluorophenyl)-3-methyl-1H-1,2,4-triazol-5-yl]methyl}-3-{[3-methyl-1-(quinolin-7-yl)-1H-1,2,4-triazol-5-yl]methyl}urea] | 83 | 87
20 | Cc1nc(CNC(=O)NCc2ncnn2-c2ccc3cncnc3c2)n(-c2ccc(Cl)c(F)c2)n1 [Compound 88, 1-{[1-(4-chloro-3-fluorophenyl)-3-methyl-1H-1,2,4-triazol-5-yl]methyl}-3-{[1-(quinazolin-7-yl)-1H-1,2,4-triazol-5-yl]methyl}urea] | 70 | 68
21 | Cc1nc(CNC(=O)NCc2n[nH]c(=O)n2-c2ccc(Cl)c(F)c2)n(-c2ccc(Cl)c(F)c2)n1 [Compound 89, 1-{[1-(4-chloro-3-fluorophenyl)-3-methyl-1H-1,2,4-triazol-5-yl]methyl}-3-{[4-(4-chloro-3-fluorophenyl)-5-oxo-4,5-dihydro-1H-1,2,4-triazol-3-yl]methyl}urea] | 31 | 91
22 | Cc1nc(CNC(=O)NCc2nn(C)c(=O)n2-c2ccc(Cl)c(F)c2)n(-c2ccc(Cl)c(F)c2)n1 [Compound 90, 3-{[4-(4-chloro-3-fluorophenyl)-1-methyl-5-oxo-4,5-dihydro-1H-1,2,4-triazol-3-yl]methyl}-1-{[1-(4-chloro-3-fluorophenyl)-3-methyl-1H-1,2,4-triazol-5-yl]methyl}urea] | 40 | 97
23 | O=C(NCc1ncnn1-c1ccc(Cl)c(F)c1)NCc1nc(C2CC2)nn1-c1ccc2cccnc2c1 [Compound 91, 1-{[1-(4-chloro-3-fluorophenyl)-1H-1,2,4-triazol-5-yl]methyl}-3-{[3-cyclopropyl-1-(quinolin-7-yl)-1H-1,2,4-triazol-5-yl]methyl}urea] | 49 | 61
24 | CCc1nc(CNC(=O)NCc2ncnn2-c2ccc(Cl)c(F)c2)n(-c2ccc3cccnc3c2)n1 [Compound 92, 1-{[1-(4-chloro-3-fluorophenyl)-1H-1,2,4-triazol-5-yl]methyl}-3-{[3-ethyl-1-(quinolin-7-yl)-1H-1,2,4-triazol-5-yl]methyl}urea] | 52 | 72
25 | Cc1nc(CNC(=O)NCc2nc(CO)nn2-c2ccc(Cl)c(F)c2)n(-c2ccc3cccnc3c2)n1 [Compound 93, 1-{[1-(4-chloro-3-fluorophenyl)-3-(hydroxymethyl)-1H-1,2,4-triazol-5-yl]methyl}-3-{[3-methyl-1-(quinolin-7-yl)-1H-1,2,4-triazol-5-yl]methyl}urea] | 150 | 100
26 | Cc1nc(CNC(=O)NCc2nc(CCO)nn2-c2ccc(Cl)c(F)c2)n(-c2ccc3cccnc3c2)n1 [Compound 94, 1-{[1-(4-chloro-3-fluorophenyl)-3-(2-hydroxyethyl)-1H-1,2,4-triazol-5-yl]methyl}-3-{[3-methyl-1-(quinolin-7-yl)-1H-1,2,4-triazol-5-yl]methyl}urea] | 730 | 87
27 | COC(=O)c1cc(-n2nc(C)nc2CNC(=O)NCc2nc(C)nn2-c2ccc(Cl)c(F)c2)ccc1Cl [Compound 95, methyl 2-chloro-5-(5-{[({[1-(4-chloro-3-fluorophenyl)-3-methyl-1H-1,2,4-triazol-5-yl]methyl}carbamoyl)amino]methyl}-3-methyl-1H-1,2,4-triazol-1-yl)benzoate] | 68 | 87
